“And” between values parts separate entries of the source, which are not always exact repeats. Equal values may be shown once.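 Values below derive from 48-hour exposures of cells grown in 96-well plates, with endpoints linearly interpolated between the two concentrations bracketing the appropriate inhibition level. Here, GI50 denotes the concentration required for 50% inhibition of growth. The concentration for full growth arrest is given as TGI.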

Among the test systems are CAKI-1 renal; SF-268 CNS; HCT-15 colon; SF-295 CNS; COLO 205 colon; SF-539 CNS; LOX IMVI melanoma; OVCAR-3 ovarian; OVCAR-8 ovarian; HL-60(TB) leukemia.
Holding throughout (assay): NCI-60 cell line screen, 48 h

Take `CC1=C(C(=O)Nc2cc(F)c(F)cc2F)C(c2ccc(N(C)C)cc2)C(C(=O)Nc2cc(F)c(F)cc2F)=C(C)N1`: the TGI was > 67.7 µM in the test with CAKI-1 renal; > 100 µM in the test with SF-268 CNS; > 100 µM in the test on HCT-15 colon; > 77.2 µM with SF-295 CNS; > 100 µM in the test on COLO 205 colon; > 74.1 µM in the test on SF-539 CNS. In addition, the TGI with LOX IMVI melanoma was > 100 µM; with OVCAR-3 ovarian, 49.7 µM; in the test with OVCAR-8 ovarian, > 100 µM; in the test on HL-60(TB) leukemia, > 61.2 µM. Also, the GI50 in the test on HCT-15 colon was 28.6 µM.
On to `O=C1/C(=C/c2ccc([N+](=O)[O-])s2)Oc2ccc(Br)cc21`, for which the GI50 is 1.16 µM in the test with CAKI-1 renal; 0.256 µM in the test with SF-268 CNS; 0.208 µM in the test with HCT-15 colon; 1.24 µM in the test with SF-295 CNS; 0.47 µM with COLO 205 colon; 0.212 µM in the test on SF-539 CNS. Further, the GI50 was 0.209 µM in the test on LOX IMVI melanoma, 0.207 µM in the test with OVCAR-3 ovarian, 0.37 µM in the test with OVCAR-8 ovarian and 0.487 µM in the test on HL-60(TB) leukemia. Further, the TGI in the test on CAKI-1 renal amounted to 9.42 µM; with SF-268 CNS, 0.684 µM; in the test with HCT-15 colon, 0.583 µM; with SF-295 CNS, 3.35 µM; in the test with COLO 205 colon, 1.86 µM; in the test with SF-539 CNS, 0.517 µM. For the same compound, the TGI in the test with LOX IMVI melanoma is 0.486 µM; in the test on OVCAR-3 ovarian, 0.409 µM; with OVCAR-8 ovarian it was > 100 µM; in the test with HL-60(TB) leukemia, 7.5 µM.
Consider `COC(=O)c1cc2c3cc(Cl)ccc3[nH]c2c2ncccc12`, for which the GI50 with CAKI-1 renal is > 100 µM; in the test with SF-268 CNS it was > 100 µM; with HCT-15 colon, > 100 µM; in the test on SF-295 CNS it was > 100 µM; with COLO 205 colon, > 100 µM; in the test on SF-539 CNS, 51.8 µM. In addition, the GI50 in the test with LOX IMVI melanoma, in the test on OVCAR-3 ovarian, with OVCAR-8 ovarian and in the test on HL-60(TB) leukemia was > 100 µM throughout. Besides, the TGI with CAKI-1 renal, in the test on SF-268 CNS, in the test on HCT-15 colon, in the test on SF-295 CNS, with COLO 205 colon and with SF-539 CNS was > 100 µM throughout. Besides, the TGI with LOX IMVI melanoma, with OVCAR-3 ovarian, in the test with OVCAR-8 ovarian and with HL-60(TB) leukemia was > 100 µM throughout.
As for `NNC(=S)N/N=C(\c1nc2ccc(Cl)cc2[nH]c1=O)C(O)c1cccc([N+](=O)[O-])c1` (stereo not given), the TGI in the test with CAKI-1 renal is > 100 µM; in the test with SF-268 CNS it was > 79.5 µM; with HCT-15 colon, > 100 µM; in the test with SF-295 CNS it was > 100 µM; in the test with COLO 205 colon, > 58.4 µM; in the test on SF-539 CNS, > 47.5 µM. Moreover, the TGI in the test with LOX IMVI melanoma is > 56.6 µM; in the test with OVCAR-3 ovarian, > 100 µM; in the test with OVCAR-8 ovarian it was > 100 µM; in the test on HL-60(TB) leukemia, > 94.3 µM.
Consider `C=CC(=O)N1CCN(c2nc(OC[C@@H]3CCCN3C)nc3c(F)c(-c4nc(N)cc(C)c4C(F)(F)F)c(Cl)cc23)[C@@H](C)C1`, for which the GI50 was 1.51 µM in the test with CAKI-1 renal; 1.59 µM in the test on SF-268 CNS; 1.7 µM in the test on HCT-15 colon; 4.74 µM with SF-295 CNS; 1.86 µM in the test with COLO 205 colon; 1.73 µM in the test with SF-539 CNS. The GI50 in the test on LOX IMVI melanoma was 1.6 µM; in the test with OVCAR-3 ovarian it was 1.66 µM; in the test with OVCAR-8 ovarian, 1.64 µM; with HL-60(TB) leukemia, 2.91 µM. Also, the TGI with CAKI-1 renal was found to be 2.95 µM; in the test with SF-268 CNS, 3.19 µM; with HCT-15 colon, 3.47 µM; in the test with SF-295 CNS, 16.9 µM; in the test on COLO 205 colon it was 3.5 µM; in the test with SF-539 CNS, 3.51 µM. Also, the TGI in the test on LOX IMVI melanoma is 3.02 µM; in the test with OVCAR-3 ovarian, 3.14 µM; in the test with OVCAR-8 ovarian, 3.09 µM; in the test on HL-60(TB) leukemia, > 100 µM.
Regarding `Cc1nc2sc(C(=O)Nc3cccc4c3OCCO4)c(N)c2cc1C(C)O` (stereo not given), the GI50 with CAKI-1 renal is 4.91 µM; in the test with SF-268 CNS it was > 100 µM; in the test with HCT-15 colon, 3.26 µM; with SF-295 CNS, 5.04 µM; in the test with COLO 205 colon, 4.27 µM; in the test on SF-539 CNS it was 2.96 µM. In addition, the GI50 in the test on LOX IMVI melanoma is 5.26 µM; in the test on OVCAR-3 ovarian it was 3.6 µM; in the test with OVCAR-8 ovarian, 6.48 µM; in the test with HL-60(TB) leukemia, 2.99 µM. Moreover, the TGI was > 100 µM in the test with CAKI-1 renal; > 100 µM in the test with SF-268 CNS; > 100 µM in the test on HCT-15 colon; > 100 µM with SF-295 CNS; > 100 µM in the test with COLO 205 colon; 13.8 µM in the test on SF-539 CNS. Moreover, the TGI in the test with LOX IMVI melanoma was > 100 µM; with OVCAR-3 ovarian, > 100 µM; in the test with OVCAR-8 ovarian it was > 100 µM; in the test with HL-60(TB) leukemia, 13 µM.
As to `CCOC(=O)c1ccc(N[C@@H]2c3cc4c(cc3C(c3cc(OC)c(O)c(OC)c3)[C@H]3C(=O)OCC32)OCO4)cc1` (stereo not given in full), the GI50 with CAKI-1 renal is 0.109 µM; in the test with SF-268 CNS, 0.394 µM; with SF-295 CNS, 0.238 µM and 0.241 µM; in the test with COLO 205 colon, 0.833 µM; in the test with SF-539 CNS, 0.34 µM; in the test with LOX IMVI melanoma it was 0.217 µM and 0.118 µM. In addition, the GI50 with OVCAR-8 ovarian is 0.479 µM; in the test on HL-60(TB) leukemia, 0.0114 µM. Besides, the TGI in the test with CAKI-1 renal is 0.854 µM and 3.88 µM; in the test with SF-268 CNS, 15.7 µM; in the test with HCT-15 colon, 6.17 µM; with SF-295 CNS it was 0.904 µM and 2.2 µM; in the test with COLO 205 colon, 7.68 µM; in the test on SF-539 CNS, 0.951 µM and 1.97 µM. The TGI is 1.61 µM with LOX IMVI melanoma; 6.71 µM with OVCAR-3 ovarian; 6.49 µM in the test on OVCAR-8 ovarian; 0.282 µM and 0.889 µM in the test with HL-60(TB) leukemia.
In the case of `CC(C)C[C@H](NC(=O)[C@@H](N)Cc1cccc2ccccc12)B(O)O`, the GI50 in the test with CAKI-1 renal is 0.225 µM; in the test on SF-268 CNS, 0.246 µM and 0.0326 µM; with HCT-15 colon, 0.35 µM; in the test with SF-295 CNS it was 0.313 µM; in the test with COLO 205 colon, 1.92 µM; with SF-539 CNS, 0.178 µM. The GI50 with LOX IMVI melanoma is 0.184 µM; with OVCAR-3 ovarian it was 0.187 µM; in the test with OVCAR-8 ovarian, 1.62 µM; with HL-60(TB) leukemia it was 0.0789 µM and 0.0291 µM. Also, the TGI in the test on HL-60(TB) leukemia was 50 µM and > 100 µM.
On to `COC(=O)N1C=CC2=C(C)C3Nc4ccccc4C3C(C)=C2C1` (stereo not given), for which the TGI is > 100 µM with CAKI-1 renal; 74.2 µM with SF-268 CNS; 33.6 µM in the test on HCT-15 colon; 17.9 µM in the test with SF-295 CNS; 6.66 µM with COLO 205 colon; 17.2 µM in the test with SF-539 CNS. Moreover, the TGI in the test with LOX IMVI melanoma turned out to be 20.1 µM; in the test on OVCAR-3 ovarian, 3.69 µM; in the test with OVCAR-8 ovarian, 7.5 µM; in the test with HL-60(TB) leukemia, 11.9 µM.

The record behind these values is PubChem BioAssay (NCI).
